Measured values taken from patent US20010014694A1, “Substituted phenyl compounds and derivatives thereof that modulate the activity of endothelin” (priority 1996, published 2001).

How the values were obtained:
[1] = tested on: ETA and ETB receptors; experiment: Endothelin binding inhibition assays of the Examples, result stated for ETA and/or ETB; set-up: species or system human; settings: relative to the other compounds listed; in vitro binding assays
Excerpt: (§1) Compounds that are potential endothelin antagonists are identified by testing their ability to compete with ^125I-labeled ET-1 for binding to human ETA receptors or ETB receptors present on isolated cell membranes. The effectiveness of the test compound as an antagonist or agonist of the biological tissue response of endothelin can also be assessed by measuring the effect on endothelin induced contraction of isolated rat thoracic aortic rings. The ability of the compounds to act as antagonists or agonists for ETB receptors can be assess by testing the ability of the compounds are to inhibit endothelin-1 induced prostacyclin release from cultured bovine aortic endothelial cells.
(§2) A. Endothelin Binding Inhibition—Binding Test #1: Inhibition of Binding to ETA Receptors
(§3) TE 671 cells (ATCC Accession No. HTB 139) express ETA receptors. These cells were grown to confluence in T-175 flasks. Cells from multiple flasks were collected by scraping, pooled and centrifuged for 10 min at 190×g. The cells were resuspended in phosphate buffered saline (PBS) containing 10 mM EDTA using a Tenbroeck homogenizer. The suspension was centrifuged at 4° C. at 57,800×g for 15 min, the pellet was resuspended in 5 ml of buffer A (5 mM HEPES buffer, pH 7.4 containing aprotinin (100 KIU/ml)) and then frozen and thawed once. 5 ml of Buffer B (5 mM HEPES Buffer, pH 7.4 containing 10 mM MnCl2 and 0.001% deoxyribonuclease Type 1) was added, the suspension mixed by inversion and then incubated at 37° C. for 30 minutes. The mixture was centrifuged at 57,800×g as described above, the pellet washed twice with buffer A and then resuspended in buffer C (30 mM HEPES buffer, pH 7.4 containing aprotinin (100 KIU/ml) to give a final protein concentration of 2 mg/ml and stored at −70° C. until use.
(§4) The membrane suspension was diluted with binding buffer (30 mM HEPES buffer, pH 7.4 containing 150 mM NaCl, 5 mM MgCl2, 0.5% Bacitracin) to a concentration of 8 μg/50 μl. ^25I-endothelin-1 (3,000 cpm, […]) was added to 50 μl of either: (A) endothelin-1 (for non specific binding) to give a final concentration 80 nM); (B) binding buffer (for total binding); or (C) a test compound (final concentration 1 nM to 100 μM). The membrane suspension (50 μl), containing up to 8 μg of membrane protein, was added to each of (A), (B), or (C). Mixtures were shaken, and incubated at 4° C. for 16-18 hours, and then centrifuged at 4° C. for 25 min at 2,500×g. Alternatively, the incubation was conducted at 24° C. When incubated at 24° C., the IC50 concentrations are 2- to 10-fold higher than when the incubation is conducted at 4° C. This, must be kept in mind when comparing IC50 concentrations among compounds provided herein.
The supernatant, containing unbound radioactivity, was decanted and the pellet counted on a Genesys multiwell gamma counter. The degree of inhibition of binding (D) was calculated according to the following equation: [formula]
Each test was generally performed in triplicate.
(§5) B. Endothelin Binding Inhibition—Binding Test #2: Inhibition of Binding to ETB Receptors
(§6) COS7 cells were transfected with DNA encoding the ETB receptor, The resulting cells, which express the human ETB receptor, were grown to confluence in T-150 flasks. Membrane was prepared as described above. The binding assay was performed as described above using the membrane preparation diluted with binding buffer to a concentration of 1 μg/50 μl.
Briefly, the COS7 cells, described above, that had been transfected with DNA encoding the ETB receptor and express the human ETB receptor on their surfaces were grown to confluence in T-175 flasks. Cells from multiple flasks were collected by scraping, pooled and centrifuged for 10 min at 190×g. The cells were resuspended in phosphate buffered saline (PBS) containing 10 mM EDTA using a Tenbroeck homogenizer. The suspension was centrifuged at 4° C. […]

[2] = tested on: non-cardiovascular tissues, such as kidney, adrenal gland, and cerebellum (ETB receptors predominate); settings: cited from earlier work
[3] = target: T1, human ETA receptors (Homo sapiens, UniProt P25101); experiment: Binding Test #1: inhibition of 125I-labeled ET-1 binding to ETA receptors (TE 671 cell membranes); settings: ETA over ETB; preferably at least 3-fold greater affinity, more preferably 5-fold or more
T1 construct: endogenous in cells; host or cells: TE 671 cells (ATCC HTB 139), membrane preparation
T1 sequence (P25101 21-427): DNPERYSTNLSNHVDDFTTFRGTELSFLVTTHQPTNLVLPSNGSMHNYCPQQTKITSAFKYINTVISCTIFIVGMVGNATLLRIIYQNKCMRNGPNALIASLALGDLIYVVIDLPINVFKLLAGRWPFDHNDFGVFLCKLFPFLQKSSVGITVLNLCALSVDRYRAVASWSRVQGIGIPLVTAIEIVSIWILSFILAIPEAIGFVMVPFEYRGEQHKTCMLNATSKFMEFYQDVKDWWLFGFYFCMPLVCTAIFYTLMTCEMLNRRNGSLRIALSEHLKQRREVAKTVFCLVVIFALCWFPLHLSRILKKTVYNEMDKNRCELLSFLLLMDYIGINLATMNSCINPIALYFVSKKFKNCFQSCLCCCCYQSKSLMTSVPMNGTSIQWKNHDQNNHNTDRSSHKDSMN
Excerpt: as §1, §2, §3
as §4, with “When incubated at 24° C., the IC50 concentrations are 2- to 10-fold higher than when the incubation is conducted at 4° C. This, must be kept in mind when comparing IC50 concentrations among compounds provided herein.” left out
The supernatant, containing unbound radioactivity, was decanted and the pellet counted on a Genesys multiwell gamma counter. The degree of inhibition of binding (D) was calculated according to the following equation: [formula] […]

[4] = target: T2, human ETB receptor (Homo sapiens, UniProt P24530); experiment: Binding Test #2: inhibition of 125I-labeled ET-1 binding to ETB receptors (transfected COS7 cell membranes); settings: ETB over ETA; preferably at least 3-fold greater affinity, more preferably 5-fold or more
T2 construct: expressed in transfected cells; host or cells: COS7 cells, membrane preparation
T2 sequence (P24530 27-442): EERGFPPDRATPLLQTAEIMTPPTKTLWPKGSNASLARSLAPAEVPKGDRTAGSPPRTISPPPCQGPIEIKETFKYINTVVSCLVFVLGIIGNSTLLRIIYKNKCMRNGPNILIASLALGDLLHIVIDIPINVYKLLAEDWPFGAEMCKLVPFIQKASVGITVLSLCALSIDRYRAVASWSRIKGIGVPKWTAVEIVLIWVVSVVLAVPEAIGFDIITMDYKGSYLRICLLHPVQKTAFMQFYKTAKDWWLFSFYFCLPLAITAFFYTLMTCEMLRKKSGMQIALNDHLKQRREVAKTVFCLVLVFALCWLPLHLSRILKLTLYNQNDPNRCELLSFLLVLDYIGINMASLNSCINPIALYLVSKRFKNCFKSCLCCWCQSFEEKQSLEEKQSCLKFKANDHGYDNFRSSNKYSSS
Excerpt: as §1, §5, §6
Briefly, the COS7 cells, described above, that had been transfected with DNA encoding the ETB receptor and express the human ETB receptor on their surfaces were grown to confluence in T-175 flasks. Cells from multiple flasks were collected by scraping, pooled and centrifuged for 10 min at 190×g. The cells were resuspended in phosphate buffered saline (PBS) containing 10 mM EDTA using a Tenbroeck homogenizer. The suspension was centrifuged at 4° C. 57,800×g for 15 min, the pellet was resuspended in 5 ml of buffer A (5 mM HEPES buffer, pH 7.4 containing aprotinin (100 KIU/ml)) and then frozen and thawed once. Five ml of Buffer B (5 mM HEPES Buffer, pH 7.4 containing 10 mM MnCl2 and 0.001% deoxyribonuclease Type 1) was added, the suspension mixed by inversion and then incubated at 37° C. for 30 minutes. The mixture was centrifuged at 57,800×g as described above, the pellet washed twice with buffer A and then resuspended in buffer C (30 mM HEPES buffer, pH 7.4 containing aprotinin (100 KIU/ml) to give a final protein concentration of 2 mg/ml.
The binding assay was performed as described above using the membrane preparation diluted to give 1 μg/50 μl of binding buffer.

Compound	More active among these compounds [1]	also measured
COc1ccc(Sc2cccc(Oc3ccc4c(c3)OCO4)c2C(=O)O)cc1 [Example 12, 2-(4-methoxythiophenoxy)-6-[3,4-(methylenedioxy)phenoxy]benzoic acid]	More active	
Cc1ccc(Oc2cccc(Oc3ccc4c(c3)OCO4)c2C(=O)O)cc1 [Example 2, 2-[3,4-(methylenedioxy)phenoxy]-6-(4-methylphenoxy)benzoic acid]	More active	
(Thr^2,Phe^4,Thr^5,Tyr^6,Lys^7,Tyr^14) endothelin-1 [endothelin-3]		extent of inhibition of 125I-labelled endothelin-1 binding [2]: to the same extent
O=C(O)Cc1cccc(Oc2cccc(Oc3ccc4c(c3)OCO4)c2C(=O)O)c1 [Example 13, 2-[(3-Carboxymethyl)phenoxy]-6-[3,4-(methylenedioxy)phenoxy]benzoic acid]		ETA selective (interact with greater affinity with one receptor sub-type than with the other) [3]: ETA selective; ETB selective (interact with greater affinity with one receptor sub-type than with the other) [4]: ETB selective
O=C(O)CCc1cc2c(cc1Oc1cccc(Oc3ccc4c(c3)OCO4)c1C(=O)O)OCO2 [Example 19, 2-(3,4-methylenedioxy)phenoxy-6-[2-carboxyethyl-4,5-(methylenedioxy)phenoxy]benzoic acid]	More active	ETB selective (interact with greater affinity with one receptor sub-type than with the other) [4]: ETB selective
O=C(O)/C=C/c1cc2c(cc1Oc1cccc(Oc3ccc4c(c3)OCO4)c1C(=O)O)OCO2 [Example 20, 2-(3,4-methylenedioxy)phenoxy-6-[2-carboxy-trans-ethenyl-4,5-(methylenedioxy)phenoxy]benzoic acid]	More active	
4-[2-carboxy-3,4-(methylenedioxy)phenoxy]-6-[3,4-(methylenedioxy)phenoxy]-2-(methylthio)-pyrimidine		ETA selective (interact with greater affinity with one receptor sub-type than with the other) [3]: ETA selective
2-[3,4-(methylenedioxy)phenoxy]-6-[(2-carboxyethyl)-4-methoxyphenoxy]benzoic acid [Example 23]	More active	
COc1ccc(Oc2cccc(Oc3ccc4c(c3)OCO4)c2C(=O)O)cc1 [Example 1, 2-(4-Methoxyphenoxy)-6-[3,4-(methylenedioxy)phenoxy]benzoic acid]	More active	
4,6-Bis[2-carboxy-3,4-(methylenedioxy)phenoxy]-2-(methylthio)pyrimidine		ETA selective (interact with greater affinity with one receptor sub-type than with the other) [3]: ETA selective
CCCc1cc2c(cc1Oc1cccc(Oc3ccc4c(c3)OCO4)c1C(=O)O)OCO2 [Example 18, 2-(3,4-methylenedioxy)phenoxy-6-[2-propyl-4,5-(methylenedioxy)phenoxy]benzoic acid]	More active	
COc1ccc(Oc2cccc(Oc3ccc(OC)cc3)c2C(=O)O)cc1 [Example 6, 2,6-bis-(4-methoxyphenoxy)benzoic acid]		melting point: 222 to 224 °C; ETB selective (interact with greater affinity with one receptor sub-type than with the other) [4]: ETB selective
Cc1cccc(Oc2cccc(Oc3ccc4c(c3)OCO4)c2C(=O)O)c1 [Example 11, 2-[3,4-(methylenedioxy)phenoxy]-6-(3-methylphenoxy)benzoic acid]	More active	
O=C(O)Cc1ccc(Oc2cccc(Oc3ccc4c(c3)OCO4)c2C(=O)O)cc1 [Example 14, 2-[(4-Carboxymethyl)phenoxy]-6-[3,4-(methylenedioxy)phenoxy]benzoic acid]		ETA selective (interact with greater affinity with one receptor sub-type than with the other) [3]: ETA selective
O=C(O)c1c(Oc2ccc3c(c2)OCO3)cccc1Oc1ccc2c(c1)OCO2 [Example 5, 2,6-bis-[3,4-(methylenedioxy)phenoxy]benzoic acid]	More active	
Ethyl 2-[3,4-(methylenedioxy)phenoxy]-6-[2-(carboxyethyl)-4-methoxyphenoxy]benzoate [Example 22]	More active	
O=C(O)c1c(Oc2ccccc2)cccc1Oc1ccccc1 [Example 9, 2,6-diphenoxybenzoic acid]		melting point: 150 to 153 °C
Cc1ccc(Oc2cccc(Oc3ccc(C)cc3)c2C(=O)O)cc1 [Example 8, 2,6-bis-(4-methylphenoxy)benzoic acid]		melting point: 205 to 206 °C; ETB selective (interact with greater affinity with one receptor sub-type than with the other) [4]: ETB selective
Cc1ccc(Oc2cccc(Oc3ccc4c(c3)OCO4)c2C(=O)O)c(Br)c1 [Example 7, 2-(2-Bromo-4-methylphenoxy)-6-[3,4-(methylenedioxy)phenoxy]benzoic acid]	More active	
2-[3,4-(methylenedioxy)phenoxy]-6-[2-(1-propenyl)-3,4-(methylenedioxy)phenoxy]benzoic acid [Example 17]	More active	ETB selective (interact with greater affinity with one receptor sub-type than with the other) [4]: ETB selective
COc1cccc(Oc2cccc(Oc3ccc4c(c3)OCO4)c2C(=O)O)c1 [Example 26, 2-[3,4-(methylenedioxy)phenoxy]-6-(3-methoxyphenoxy)benzoic acid]	More active	
